# Source: US8636979B2, “TLR 4 and 9 receptors agonists for preventing septic complications of post-traumatic immunodepression in patients hospitalized for severe traumatic injuries” (Chu Nantes, priority 2009, dated 2014)
# System: methicillin-sensitive Staphyloccocus aureus (MSSA) pneumonia after haemorrhagic shock
# Test: Mortality from MSSA pneumonia after haemorrhagic shock (post-haemorrhagic SI model)
# Assay type: in vivo
# Conditions: Balb/cJ mice; i.v. injection immediately after resuscitation from haemorrhagic shock; 7×10^6 CFU MSSA 24 h later; survival followed 7 days
# Experimental: An intra-venous injection of CpG-ODN 1668 (100 μl to […]) (HP-CpG group) or the same volume of isotonic saline solution (HP group) was given immediately after resuscitation from haemorrhagic shock. Twenty-four hours later the mice were inoculated with 7×10^6 CFU of MSSA. The survival rate of each group was measured twice a day for 7 days (168 hours). Each group comprised 8 animals. Data are given as a percentage and are representative of three independent experiments each having the same statistical significance (*p≦0.05). HP Group (black diamonds), HP-CpG group (blank squares).
# Male Balb/cJ mice (20-24 grams) were obtained from the Janvier breeding company (Laval, France). Mice were kept on a day/night cycle of 12 hours with free access to food and drink. […]
# A strain of methicillin-sensitive Staphyloccocus aureus or <<MSSA>> (ATCC strain 29213) was cultured 16 hours at 37° C. in a tryptic soy medium (Grosseron, Saint Herblain, France). […] The bacterial concentration was systematically controlled by quantitative culture. […]
# Mortality was assessed twice a day for 7 days. […] Capillary glycaemia was measured using a haemaglucotest (Boehringer Ingelheim France), Venous blood gasometry, reflecting shock intensity and quality of resuscitation, was measured on central venous blood taken from the right atrium.
substance,measurement,value
monophosphoryl lipid A [MPLA],mortality in post-haemorrhagic SI model with MSSA pneumonia,significantly lowered mortality
